According to PubChem BioAssay (NCI):
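Method: 48-hour compound exposure of cells in 96-well plates, five concentrations, linear interpolation of endpoints. Here, GI50 denotes the concentration required for 50% inhibition of growth. Definition used: TGI = concentration required for complete inhibition of growth.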

How the values were obtained:
Assay in all cases: NCI-60 cell line screen, 48 h
[1] = tested on: NCI-H460 lung
[2] = tested on: TK-10 renal
[3] = tested on: SK-OV-3 ovarian
[4] = tested on: M14 melanoma
[5] = tested on: CAKI-1 renal
[6] = tested on: 786-0 renal
[7] = tested on: MDA-MB-231 breast
[8] = tested on: A549 NSCLC
[9] = tested on: SF-539 CNS
[10] = tested on: KM20L2 colon
[11] = tested on: XF 498 CNS

`Cc1cc(O)c2c(c1)C(C1c3cccc(O)c3C(=O)c3c(O)cc(C)cc31)c1cccc(O)c1C2=O` (stereo not given) gave a TGI [1] of 12.8 µM, a TGI [2] of 20.6 µM and a TGI [3] of 1.69 µM. The TGI [4] was 7.49 µM, the TGI [5] was 7.06 µM and the TGI [6] was 6.82 µM. For the same molecule, the TGI [7] was 1.73 µM, the TGI [8] was 0.97 µM and the TGI [9] was 0.556 µM.

Work on `COc1ccc([I+]c2ccc(OC)cc2)cc1` yielded a GI50 [1] of 5.28 µM, a TGI [1] of over 100 µM and a TGI [2] of over 100 µM. For the same molecule, the TGI [3] was over 100 µM, the GI50 [4] was 13.4 µM and the TGI [4] was over 100 µM. For the same molecule, the GI50 [5] was over 85.3 µM, the TGI [5] was over 100 µM and the TGI [6] was over 100 µM. The TGI [7] was over 100 µM, the GI50 [8] was 5.14 µM and the TGI [8] was over 100 µM. For the same molecule, the GI50 [9] was 11 µM and the TGI [9] was over 100 µM.

Work on `O=c1[nH]c(=O)n(C2CC(O)C(CO)O2)cc1Br` (stereo not given) yielded a TGI [1] of over 100 µM, a TGI [2] of over 100 µM and a TGI [3] of over 100 µM. For the same molecule, the TGI [4] was over 100 µM, the TGI [5] was over 100 µM and the TGI [6] was over 100 µM. It also gave a TGI [7] of over 100 µM, a TGI [8] of over 100 µM and a TGI [9] of over 100 µM.

In the case of `COC(=O)C(CCC1(C)OCCO1)=[N+]=[N-]`, the TGI [1] is reported as over 100 µM, the TGI [2] is reported as over 100 µM and the TGI [10] is reported as over 100 µM. The TGI [3] was over 100 µM, the TGI [4] was over 100 µM and the TGI [6] was over 100 µM. For the same molecule, the TGI [11] was over 100 µM, the TGI [8] was over 100 µM and the TGI [9] was over 100 µM.

Molecule `C/C(=N\NC(N)=S)c1nc2ncccc2[nH]1` has a TGI [1] of over 100 µM, a TGI [2] of over 100 µM and a TGI [3] of over 100 µM. The TGI [4] was over 100 µM, the TGI [5] was over 100 µM and the TGI [6] was over 100 µM. For the same molecule, the TGI [7] was over 100 µM, the TGI [8] was over 100 µM and the TGI [9] was over 100 µM.

`Fc1ccc(C(OCCN2CCC3CCC(C2)N3C/C=C/c2cccs2)c2ccc(F)cc2)cc1` (stereo not given) gave a TGI [1] of 15.4 µM, a TGI [2] of 24.3 µM and a TGI [3] of 26.3 µM. The TGI [4] was 14.8 µM, the TGI [5] was 23.1 µM and the TGI [6] was 20.8 µM. It also gave a TGI [7] of 21.3 µM, a TGI [8] of 24.3 µM and a TGI [9] of 22.5 µM.

Work on `NC(=S)N1N=C2c3ccccc3CCC[C@H]2[C@@H]1c1ccccc1` yielded a TGI [1] of 12.1 µM, a TGI [2] of 52 µM and a TGI [10] of 5.22 µM. The TGI [3] was 2.77 µM, the TGI [4] was 10.1 µM and the TGI [6] was 21.8 µM. For the same molecule, the TGI [11] was 16.5 µM, the TGI [7] was 17.1 µM and the TGI [8] was over 53.7 µM. The TGI [9] was 2.61 µM.

Molecule `COc1cc(/C=C/C(=N\NC(N)=S)c2sc(NNC(C)=O)nc2C)ccc1O` has a TGI [1] of over 100 µM, a TGI [2] of over 100 µM and a TGI [3] of over 100 µM. It also gave a TGI [4] of over 100 µM, a TGI [5] of over 100 µM and a TGI [6] of over 100 µM. For the same molecule, the TGI [7] was over 100 µM, the TGI [8] was over 100 µM and the TGI [9] was over 100 µM.

`COc1ccc(-c2cc(-c3ccc(Nc4ccnc5cc(Cl)ccc45)cc3)[nH]c(=O)c2C#N)cc1` was tested, and the TGI [1] was over 100 µM, the TGI [2] was over 100 µM and the TGI [3] was over 100 µM. It also gave a TGI [4] of over 100 µM, a TGI [5] of over 100 µM and a TGI [6] of over 100 µM. The TGI [7] was over 100 µM, the TGI [8] was over 100 µM and the TGI [9] was over 100 µM.

In the case of `O=S(=O)(/N=C(\NO)Nc1ccc(Cl)cc1)c1cc2ccccc2s1`, the TGI [1] is reported as over 100 µM, the TGI [2] is reported as 41.1 µM and the TGI [3] is reported as 34.7 µM. It also gave a TGI [4] of 33.3 µM, a TGI [5] of 34.7 µM and a TGI [6] of 32.3 µM. For the same molecule, the TGI [7] was 34.8 µM, the TGI [8] was 38.1 µM and the TGI [9] was 40.2 µM.

With `O=C1Nc2ccc(Cl)c(I)c2C1=O` the TGI [1] was 39.7 µM, the TGI [2] was over 100 µM and the TGI [10] was 34.9 µM. For the same molecule, the TGI [3] was 34.6 µM, the TGI [4] was 31.1 µM and the TGI [5] was 37.9 µM. The TGI [6] was 36.8 µM, the TGI [11] was 34.2 µM and the TGI [8] was over 100 µM.

`CCOC(=O)N1CCC2(CC1)C[C@@](C(C)=O)(c1ccccc1)C(C)O2` (stereo not given in full) showed a TGI [1] of over 100 µM, a TGI [2] of over 100 µM and a TGI [3] of over 100 µM. The TGI [4] was over 100 µM, the TGI [5] was over 100 µM and the TGI [6] was over 100 µM. The TGI [7] was over 100 µM, the TGI [8] was over 100 µM and the TGI [9] was over 100 µM.

For `COc1cc2c[n+](C)c3c4cc(OC)c(OCc5ccccc5)cc4c(OCc4ccccc4)cc3c2cc1OC`, the TGI [1] was over 100 µM, the TGI [2] was 79 µM and the TGI [3] was over 52.8 µM. It also gave a TGI [4] of 21.6 µM, a TGI [5] of over 77.3 µM and a TGI [6] of 35.5 µM. For the same molecule, the TGI [7] was 18.4 µM, the TGI [8] was over 88.8 µM and the TGI [9] was 11.8 µM.

In the case of `COc1ccc(NC(=O)C(=O)Cc2ccc([N+](=O)[O-])c([N+](=O)[O-])c2CC(=O)C(=O)Nc2ccc(OC)cc2OC)c(OC)c1`, the TGI [1] is reported as over 100 µM, the TGI [2] is reported as over 100 µM and the TGI [10] is reported as over 100 µM. For the same molecule, the TGI [3] was over 100 µM, the TGI [4] was over 100 µM and the TGI [5] was over 100 µM. For the same molecule, the TGI [6] was over 100 µM and the TGI [8] was over 100 µM.

`CCOC(=O)NN(C(=O)OCC)C(C(=O)c1ccccc1)N(NC(=O)OCC)C(=O)OCC` showed a TGI [1] of over 100 µM, a TGI [2] of over 100 µM and a TGI [3] of over 100 µM. The TGI [4] was over 100 µM, the TGI [5] was over 100 µM and the TGI [6] was over 100 µM. It also gave a TGI [7] of over 100 µM, a TGI [8] of over 100 µM and a TGI [9] of over 100 µM.
